# US8436183B2, “Synthetic multimerizing agents” (ARIAD Pharmaceuticals, Inc., priority 1994, dated 2013)
# Counter-ions that a name gives are not always drawn. Like-named read-outs stand apart in the source and are kept apart here.
# Tests used:
# wild-type human FKBP12 [1] = target: T1, wild-type human FKBP12 (Homo sapiens, UniProt P62942); assay: Competitive Binding FP Assay, wild-type FKBP; settings: for wild-type, % @ 100000: Synthetic Monomers table, @ 100000 nM competitor
# Method: (§1) Affinities of bumped synthetic ligands for FKBP were determined using a competitive assay based on fluorescence polarization (FP). […] The assay yields IC50 values that are related to the affinity of the competitive ligand for the protein.
# (§2) For competition FP assays, the appropriate protein concentration (giving ˜90% binding of probe) was first determined by direct binding of probe to protein (see eg. Beacon FP System Applications Guide, Panvera Corp, Madison, Wis.). All binding assay procedures were performed at room temperature. Serial dilutions of each protein were prepared in 50 mM potassium phosphate pH 7.8/150 mM NaCl/100 μg/ml bovine gamma globulin (“FP buffer”: prepared using only low-fluorescence reagents from Panvera), and 100 μl volumes transferred to wells of a Dynatech micro-fluor black 96-well fluorescence plate. 100 μl of 10 nM 4 in FP buffer plus 2% ethanol (prepared from an ethanol stock of the probe) was then added to each well with mixing. Duplicate control wells contained FP buffer instead of FKBP (for 0% probe binding) or 10 μM wild-type FKBP (for 100% binding).
# (§3) The plates were stored covered in the dark for approximately 30 min to permit equilibration and then the fluorescence polarization of the sample in each well was read on a Jolley FPM-2 FP plate reader (Jolley Consulting and Research, Inc., Grayslake, Ill.) in accordance with the manufacturer's recommendations. Polarization (mP units) for each protein concentration was plotted (y axis) vs. final concentration of FKBP (x axis). Concentrations were determined by OD280 measurements. Arbitrary units were used for non-quantitated proteins. Non-linear least square analysis was used to fit the curve and extract the Kd of the protein for the probe (in cases where the protein concentration was known) using the following four-parameter equation: y=M3+(((x+M1+M2)−SQRT(((x+M1+M2)^2)−(4*x*M1)))/(2*(M1)))*(M4−M3) where M1 is the probe concentration, M2 the Kd, and M3 and M4 the minimum and maximum mP values respectively.
# (§4) Serial 10-fold dilutions of each synthetic ligand were prepared in 100% ethanol in glass vials and stored on ice. All other manipulations were performed at room temperature. […] Finally, a probe solution was prepared containing 10 nM 4 in 0.1% ethanol/FP buffer, and 100 μl added to each well with mixing. […]
# (§5) The plates were stored covered in the dark for approximately 30 min to permit equilibration and then the fluorescence polarization of the sample in each well read on a Jolley FPM-2 FP plate reader (Jolley Consulting and Research, Inc., Grayslake, Ill.) in accordance with the manufacturer's recommendations. […] For incomplete curves the IC50 was determined by interpolation.
# [2] = target: T2, FAS-FKBP fusion (36V FKBP) in HT1080 cells (Homo sapiens, UniProt P62942, F37V); assay: Apoptosis Assay: Fas killing (36V, stable); format: cell-based; settings: mean values
# T2 construct: fused on or other part: Fas intracellular effector domain (gives the death read-out)
# T2 sequence (P62942 2-108 F37V limits assumed): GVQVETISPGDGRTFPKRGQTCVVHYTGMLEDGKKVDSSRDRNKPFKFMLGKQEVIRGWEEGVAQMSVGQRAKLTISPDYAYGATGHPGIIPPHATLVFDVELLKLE
# From the text: In this case, one uses cells which constitutively express a detectable product. The cells also contain and are capable of expressing DNAs encoding chimeric proteins comprising one or more immunophilin-derived ligand binding domains and one or more effector domains, such as the intracellular domain of FAS, capable, upon multimerization, of triggering cell death. […] The cells are maintained or cultured in a culture medium permitting cell growth or continued viability. The cells or medium are assayed for the presence of the constitutive cellular product, and a base-line level of reporter is thus established. One may use cells engineered for constitutive production of hGH or any other conveniently detectable product to serve as the reporter. […]
# The ability of a dimerizer to activate the Fas signal transduction pathway and trigger cell death in cells engineered to express a FAS-FKBP fusion can be tested in cells appropriately transduced by retroviral vectors to express the desired fusion protein. […] The next day, medium is removed and replaced with medium containing 10% Alamar Blue viability indicator, which changes absorbance properties as a function of reducing agent released into the medium by cell metabolism. Alternatively, cells are counted. Optical density at the appropriate wavelength is measured using a platereader spectroscope.
# FKBP F36A = target: T3, FKBP F36A (Homo sapiens, UniProt P62942, F37A); assay: Competitive Binding FP Assay, F36A mutant FKBP
# T3 construct: made in house
# T3 sequence (P62942 whole entry F37A): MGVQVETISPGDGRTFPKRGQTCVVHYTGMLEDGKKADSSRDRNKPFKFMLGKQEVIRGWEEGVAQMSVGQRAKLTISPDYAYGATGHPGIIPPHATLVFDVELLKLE
# Method: as §1, §2, §3
# (§6) Serial 10-fold dilutions of each synthetic ligand were prepared in 100% ethanol in glass vials and stored on ice. All other manipulations were performed at room temperature. […] 2.0 μl samples of the synthetic ligands were then transferred in duplicate to the wells with mixing. Finally, a probe solution was prepared containing 10 nM 4 in 0.1% ethanol/FP buffer, and 100 μl added to each well with mixing. Duplicate control wells contained ethanol instead of FKBP ligand (for 100% probe binding) or ethanol instead of FKBP ligand and FP buffer instead of FKBP (0% binding).
# (§7) The plates were stored covered in the dark for approximately 30 min to permit equilibration and then the fluorescence polarization of the sample in each well read on a Jolley FPM-2 FP plate reader (Jolley Consulting and Research, Inc., Grayslake, Ill.) in accordance with the manufacturer's recommendations. The mean polarization (mP units) for each competitor concentration, in some cases converted to % total binding by reference to the control values, was plotted (y axis) vs. log molar final concentration of competitor (x axis). Non-linear least square analysis was used to fit the curve and extract the IC50 using the following equation: y=M1+(M4−M1)/(1+exp(M2*(M3−x))) where M3 is the IC50. For incomplete curves the IC50 was determined by interpolation.
# FKBP F36M = target: T4, FKBP F36M (Homo sapiens, UniProt P62942, F37M); assay: Competitive Binding FP Assay, F36M mutant FKBP
# T4 construct: made in house
# T4 sequence (P62942 whole entry F37M): as the sequence (P62942 whole entry F37A) above, with A37M counted along it
# Method: as §1, §2, §3, §6, §7
# FKBP F36I = target: T5, FKBP F36I (Homo sapiens, UniProt P62942, F37I); assay: Competitive Binding FP Assay, F36I mutant FKBP
# T5 construct: made in house
# T5 sequence (P62942 whole entry F37I): as the sequence (P62942 whole entry F37A) above, with A37I counted along it
# Method: as §1, §2, §3, §6, §7
# FKBP F36S = target: T6, FKBP F36S (Homo sapiens, UniProt P62942, F37S); assay: Competitive Binding FP Assay, F36S mutant FKBP; settings: Synthetic Monomers table; normalized to FK506 run in the same experiment
# T6 construct: made in house
# T6 sequence (P62942 whole entry F37S): as the sequence (P62942 whole entry F37A) above, with A37S counted along it
# Method: as §1
# (§8) For competition FP assays, the appropriate protein concentration (giving ˜90% binding of probe) was first determined by direct binding of probe to protein (see eg. Beacon FP System Applications Guide, Panvera Corp, Madison, Wis.). All binding assay procedures were performed at room temperature. Serial dilutions of each protein were prepared in 50 mM potassium phosphate pH 7.8/150 mM NaCl/100 μg/ml bovine gamma globulin (“FP buffer”: prepared using only low-fluorescence reagents from Panvera), and 100 μl volumes transferred to wells of a Dynatech micro-fluor black 96-well fluorescence plate. 100 μl of 10 nM 4 in FP buffer plus 2% ethanol (prepared from an ethanol stock of the probe) was then added to each well with mixing. […]
# (§9) The plates were stored covered in the dark for approximately 30 min to permit equilibration and then the fluorescence polarization of the sample in each well was read on a Jolley FPM-2 FP plate reader (Jolley Consulting and Research, Inc., Grayslake, Ill.) in accordance with the manufacturer's recommendations. […] Concentrations were determined by OD280 measurements. Arbitrary units were used for non-quantitated proteins. […]
# FKBP F36V = FKBP F36V (Homo sapiens, UniProt P62942, F37V); assay: Competitive Binding FP Assay, F36V mutant FKBP
# Sequence of FKBP F36V (P62942 whole entry F37V): as the sequence (P62942 whole entry F37A) above, with A37V counted along it
# Method: as §1, §8, §9
# FKBP F36L = FKBP F36L (Homo sapiens, UniProt P62942, F37L); assay: Competitive Binding FP Assay, F36L mutant FKBP
# Sequence of FKBP F36L (P62942 whole entry F37L): as the sequence (P62942 whole entry F37A) above, with A37L counted along it
# Method: as §1, §2
# The plates were stored covered in the dark for approximately 30 min to permit equilibration and then the fluorescence polarization of the sample in each well was read on a Jolley FPM-2 FP plate reader (Jolley Consulting and Research, Inc., Grayslake, Ill.) in accordance with the manufacturer's recommendations. Polarization (mP units) for each protein concentration was plotted (y axis) vs. final concentration of FKBP (x axis). Concentrations were determined by OD280 measurements. Arbitrary units were used for non-quantitated proteins. […]
# as §5
# wild-type human FKBP12 [3] = target: T1, wild-type human FKBP12
# Method: as §1, §2, §3, §4, §5
# [4] = Synthetic Monomers table, normalized to FK506 run in the same experiment
# T1 sequence (P62942 whole entry, the tested form may be a part): as the sequence (P62942 whole entry F37A) above, with A37F counted along it
compound,measurement,setting,value
COc1ccc(CC[C@@H](OC(=O)[C@@H]2CCCCN2C(=O)C(c2ccccc2)c2ccccc2)c2cccc(OCC(=O)O)c2)cc1OC [AP14245],"wild-type, % @ 100000",wild-type human FKBP12 [1],73% @ 100000
AP20187,EC50,[2],< 1 nM
COc1ccc(CCC(OC(=O)C2CCCCN2C(=O)C(c2ccccc2)C(C)C)c2cccc(OCC(=O)O)c2)cc1OC (mixture of isomers) [AP1781],IC50,FKBP F36A; [4],109 nM
same,IC50,FKBP F36M; [4],55 nM
same,IC50,FKBP F36I; [4],36 nM
CCC(C)(C)C(=O)C(=O)N1CCCC[C@H]1C(=O)O[C@H](CCc1ccc(OC)c(OC)c1)c1cccc(OCC(=O)O)c1 [AP1497],IC50,FKBP F36A; [4],174 nM
same,IC50,FKBP F36S,1820 nM
same,IC50,FKBP F36I; [4],43 nM
"CC[C@H](C(=O)N1CCCC[C@H]1C(=O)O[C@H](CCN1CCOCC1)c1cccc(OCC(=O)O)c1)c1cc(OC)c(OC)c(OC)c1 [AP14246, (1R)-1-(3-(carboxymethoxy)phenyl)-3-(morpholino)-1-propyl (2S)-1-((2S)-(3,4,5-trimethoxyphenyl)butyryl)-2-piperidine carboxylate]",IC50,FKBP F36A,77 nM
same,IC50,FKBP F36M,52 nM
same,"wild-type, % @ 100000",wild-type human FKBP12 [1],75% @ 100000
same,IC50,FKBP F36V,16.5 nM
same,IC50,FKBP F36I,32 nM
same,IC50,FKBP F36L,68 nM
CC[C@H](C(=O)N1CCCC[C@H]1C(=O)O[C@H](CCc1ccc(OC)c(OC)c1)c1cccc(OCC(=O)O)c1)c1cc(OC)c(OC)c(OC)c1 [AP1867],IC50,FKBP F36A,18 nM
same,IC50,FKBP F36M,10 nM
same,IC50,wild-type human FKBP12 [1],2930 nM
same,IC50,FKBP F36V,1.8 nM
same,IC50,FKBP F36I,5.1 nM
same,IC50,FKBP F36L,6.2 nM
COc1ccc(CCC(OC(=O)C2CCCCN2C(=O)C(Cc2ccccc2)c2ccccc2)c2cccc(OCC(=O)O)c2)cc1OC (mixture of isomers) [AP1831],IC50,FKBP F36A; [4],447 nM
same,IC50,FKBP F36M; [4],169 nM
same,IC50,FKBP F36I; [4],124 nM
"CC[C@H](C(=O)N1CCCC[C@H]1C(=O)O[C@H](CCc1cccnc1)c1cccc(OCC(=O)O)c1)c1cc(OC)c(OC)c(OC)c1 [AP14252, hydrochloride]",IC50,FKBP F36A,63 nM
same,IC50,FKBP F36M,54 nM
same,IC50,FKBP F36I,6.7 nM
COc1ccc(CCC(OC(=O)C2CCCCN2C(=O)C(c2ccccc2)C2CCCC2)c2cccc(OCC(=O)O)c2)cc1OC (mixture of isomers) [AP1778],IC50,FKBP F36A; [4],75 nM
same,IC50,FKBP F36I; [4],41 nM
COc1ccc(CC[C@@H](OC(=O)[C@@H]2CCCCN2C(=O)Cc2ccccc2)c2cccc(OCC(=O)O)c2)cc1OC [AP1780],IC50,"FKBP F36L; read-out: F36L IC50, Synthetic Monomers table, normalized to FK506 run in the same experiment",3560 nM
CCC(C(=O)N1CCCC[C@H]1C(=O)O[C@H](CCc1ccc(OC)c(OC)c1)c1cccc(OCC(=O)O)c1)c1ccc2c(c1)OCO2 (stereo partly drawn) [AP1839],IC50,wild-type human FKBP12 [3],> 16900 nM
